# Experimental data taken from the supplement of paper PMC8882468.
# ± gives the standard deviation of the averaged measurements.
# Tested on: MDA-MB-231
# Assay: CTG-3D luminescence at 96 h relative to day-0 seeding control (ratio to day 0); higher = more growth / less cytotoxicity; PDxO 3D drug screen, 96 h, CTG-3D normalised to day-0 seeding control.
# Settings: 12.5 pM
row,SMILES,CTG-3D luminescence at 96 h
1,O=C(O)C1(C(=O)O)CCC1.[NH2-].[NH2-].[Pt+2] [carboplatin],4.49 ± 1.4
2,COc1cc2c(Oc3ccc4[nH]c(C)cc4c3F)ncnc2cc1OCCCN1CCCC1 [cediranib],4.34 ± 1.3
3,C[C@@H]1COCCN1c1cc(C2([S@](C)(=N)=O)CC2)nc(-c2cc[nH]c3nccc2-3)n1 [ceralasertib],4.45 ± 1.3
4,Cc1cc(Nc2ncc(Cl)c(Nc3ccccc3S(=O)(=O)C(C)C)n2)c(OC(C)C)cc1C1CCNCC1 [ceritinib],4.39 ± 1.4
5,O=C(c1ccc(F)c(F)c1Nc1ccc(I)cc1F)N1CC(O)([C@@H]2CCCCN2)C1 [cobimetinib],4.37 ± 1.3
6,C[C@H](NC(=O)CCC(F)(F)F)C(=O)N[C@@H]1C(=O)N(CCO)c2ncccc2-c2ccccc21 [crenigacestat],4.47 ± 1.4
7,COc1cccc2c1C(=O)c1c(O)c3c(c(O)c1C2=O)C[C@@](O)(C(=O)CO)C[C@@H]3O[C@H]1C[C@H](N)[C@H](O)[C@H](C)O1 [doxorubicin],4.38 ± 1.4
8,C[C@]12CC[C@@H]3c4ccc(O)cc4C[C@@H](CCCCCCCCC[S+]([O-])CCCC(F)(F)C(F)(F)F)[C@H]3[C@@H]1CC[C@@H]2O (some centres not stated) [fulvestrant],4.61 ± 1.4
9,Nc1ccn([C@@H]2O[C@H](CO)[C@@H](O)C2(F)F)c(=O)n1 [gemcitabine],4.42 ± 1.4

# Same assay, conditions: 0.00025 µM
row,SMILES,CTG-3D luminescence at 96 h
1,O=C(O)C1(C(=O)O)CCC1.[NH2-].[NH2-].[Pt+2] [carboplatin],4.27 ± 1.5
2,COc1cc2c(Oc3ccc4[nH]c(C)cc4c3F)ncnc2cc1OCCCN1CCCC1 [cediranib],4.3 ± 1.4
3,C[C@@H]1COCCN1c1cc(C2([S@](C)(=N)=O)CC2)nc(-c2cc[nH]c3nccc2-3)n1 [ceralasertib],4.38 ± 1.4
4,Cc1cc(Nc2ncc(Cl)c(Nc3ccccc3S(=O)(=O)C(C)C)n2)c(OC(C)C)cc1C1CCNCC1 [ceritinib],4.39 ± 1.3
5,O=C(c1ccc(F)c(F)c1Nc1ccc(I)cc1F)N1CC(O)([C@@H]2CCCCN2)C1 [cobimetinib],4.46 ± 1.5
6,C[C@H](NC(=O)CCC(F)(F)F)C(=O)N[C@@H]1C(=O)N(CCO)c2ncccc2-c2ccccc21 [crenigacestat],4.32 ± 1.4
7,COc1cccc2c1C(=O)c1c(O)c3c(c(O)c1C2=O)C[C@@](O)(C(=O)CO)C[C@@H]3O[C@H]1C[C@H](N)[C@H](O)[C@H](C)O1 [doxorubicin],4.45 ± 1.5
8,C[C@]12CC[C@@H]3c4ccc(O)cc4C[C@@H](CCCCCCCCC[S+]([O-])CCCC(F)(F)C(F)(F)F)[C@H]3[C@@H]1CC[C@@H]2O (some centres not stated) [fulvestrant],4.53 ± 1.5
9,Nc1ccn([C@@H]2O[C@H](CO)[C@@H](O)C2(F)F)c(=O)n1 [gemcitabine],4.37 ± 1.4

# Same assay, conditions: 0.005 µM
row,SMILES,CTG-3D luminescence at 96 h
1,O=C(O)C1(C(=O)O)CCC1.[NH2-].[NH2-].[Pt+2] [carboplatin],4.51 ± 1.6
2,COc1cc2c(Oc3ccc4[nH]c(C)cc4c3F)ncnc2cc1OCCCN1CCCC1 [cediranib],4.48 ± 1.5
3,C[C@@H]1COCCN1c1cc(C2([S@](C)(=N)=O)CC2)nc(-c2cc[nH]c3nccc2-3)n1 [ceralasertib],4.49 ± 1.5
4,Cc1cc(Nc2ncc(Cl)c(Nc3ccccc3S(=O)(=O)C(C)C)n2)c(OC(C)C)cc1C1CCNCC1 [ceritinib],4.6 ± 1.5
5,O=C(c1ccc(F)c(F)c1Nc1ccc(I)cc1F)N1CC(O)([C@@H]2CCCCN2)C1 [cobimetinib],4.46 ± 1.5
6,C[C@H](NC(=O)CCC(F)(F)F)C(=O)N[C@@H]1C(=O)N(CCO)c2ncccc2-c2ccccc21 [crenigacestat],4.4 ± 1.4
7,COc1cccc2c1C(=O)c1c(O)c3c(c(O)c1C2=O)C[C@@](O)(C(=O)CO)C[C@@H]3O[C@H]1C[C@H](N)[C@H](O)[C@H](C)O1 [doxorubicin],4.38 ± 1.4
8,C[C@]12CC[C@@H]3c4ccc(O)cc4C[C@@H](CCCCCCCCC[S+]([O-])CCCC(F)(F)C(F)(F)F)[C@H]3[C@@H]1CC[C@@H]2O (some centres not stated) [fulvestrant],4.7 ± 1.6
9,Nc1ccn([C@@H]2O[C@H](CO)[C@@H](O)C2(F)F)c(=O)n1 [gemcitabine],4.14 ± 1.3

# Same assay, conditions: 0.1 µM
row,SMILES,CTG-3D luminescence at 96 h
1,O=C(O)C1(C(=O)O)CCC1.[NH2-].[NH2-].[Pt+2] [carboplatin],4.46 ± 1.5
2,COc1cc2c(Oc3ccc4[nH]c(C)cc4c3F)ncnc2cc1OCCCN1CCCC1 [cediranib],4.29 ± 1.4
3,C[C@@H]1COCCN1c1cc(C2([S@](C)(=N)=O)CC2)nc(-c2cc[nH]c3nccc2-3)n1 [ceralasertib],4.47 ± 1.3
4,Cc1cc(Nc2ncc(Cl)c(Nc3ccccc3S(=O)(=O)C(C)C)n2)c(OC(C)C)cc1C1CCNCC1 [ceritinib],4.48 ± 1.2
5,O=C(c1ccc(F)c(F)c1Nc1ccc(I)cc1F)N1CC(O)([C@@H]2CCCCN2)C1 [cobimetinib],3.88 ± 1.1
6,C[C@H](NC(=O)CCC(F)(F)F)C(=O)N[C@@H]1C(=O)N(CCO)c2ncccc2-c2ccccc21 [crenigacestat],4.27 ± 1.2
7,COc1cccc2c1C(=O)c1c(O)c3c(c(O)c1C2=O)C[C@@](O)(C(=O)CO)C[C@@H]3O[C@H]1C[C@H](N)[C@H](O)[C@H](C)O1 [doxorubicin],3.75 ± 0.9
8,C[C@]12CC[C@@H]3c4ccc(O)cc4C[C@@H](CCCCCCCCC[S+]([O-])CCCC(F)(F)C(F)(F)F)[C@H]3[C@@H]1CC[C@@H]2O (some centres not stated) [fulvestrant],4.58 ± 1.3
9,Nc1ccn([C@@H]2O[C@H](CO)[C@@H](O)C2(F)F)c(=O)n1 [gemcitabine],2.62 ± 0.85

# Same assay, conditions: 1 µM
row,SMILES,CTG-3D luminescence at 96 h
1,O=C(O)C1(C(=O)O)CCC1.[NH2-].[NH2-].[Pt+2] [carboplatin],4.4 ± 1.5
2,COc1cc2c(Oc3ccc4[nH]c(C)cc4c3F)ncnc2cc1OCCCN1CCCC1 [cediranib],4.44 ± 1.6
3,C[C@@H]1COCCN1c1cc(C2([S@](C)(=N)=O)CC2)nc(-c2cc[nH]c3nccc2-3)n1 [ceralasertib],4.27 ± 1.3
4,Cc1cc(Nc2ncc(Cl)c(Nc3ccccc3S(=O)(=O)C(C)C)n2)c(OC(C)C)cc1C1CCNCC1 [ceritinib],4.36 ± 1.4
5,O=C(c1ccc(F)c(F)c1Nc1ccc(I)cc1F)N1CC(O)([C@@H]2CCCCN2)C1 [cobimetinib],2.4 ± 1.1
6,C[C@H](NC(=O)CCC(F)(F)F)C(=O)N[C@@H]1C(=O)N(CCO)c2ncccc2-c2ccccc21 [crenigacestat],4.51 ± 1.4
7,COc1cccc2c1C(=O)c1c(O)c3c(c(O)c1C2=O)C[C@@](O)(C(=O)CO)C[C@@H]3O[C@H]1C[C@H](N)[C@H](O)[C@H](C)O1 [doxorubicin],1.48 ± 0.42
8,C[C@]12CC[C@@H]3c4ccc(O)cc4C[C@@H](CCCCCCCCC[S+]([O-])CCCC(F)(F)C(F)(F)F)[C@H]3[C@@H]1CC[C@@H]2O (some centres not stated) [fulvestrant],4.8 ± 1.5
9,Nc1ccn([C@@H]2O[C@H](CO)[C@@H](O)C2(F)F)c(=O)n1 [gemcitabine],2 ± 0.8

# Same assay, conditions: 10 µM
row,SMILES,CTG-3D luminescence at 96 h
1,O=C(O)C1(C(=O)O)CCC1.[NH2-].[NH2-].[Pt+2] [carboplatin],4.16 ± 1.3
2,COc1cc2c(Oc3ccc4[nH]c(C)cc4c3F)ncnc2cc1OCCCN1CCCC1 [cediranib],1.46 ± 0.69
3,C[C@@H]1COCCN1c1cc(C2([S@](C)(=N)=O)CC2)nc(-c2cc[nH]c3nccc2-3)n1 [ceralasertib],3.1 ± 0.82
4,Cc1cc(Nc2ncc(Cl)c(Nc3ccccc3S(=O)(=O)C(C)C)n2)c(OC(C)C)cc1C1CCNCC1 [ceritinib],0.0178 ± 0.0055
5,O=C(c1ccc(F)c(F)c1Nc1ccc(I)cc1F)N1CC(O)([C@@H]2CCCCN2)C1 [cobimetinib],1.24 ± 0.67
6,C[C@H](NC(=O)CCC(F)(F)F)C(=O)N[C@@H]1C(=O)N(CCO)c2ncccc2-c2ccccc21 [crenigacestat],4.53 ± 1.3
7,COc1cccc2c1C(=O)c1c(O)c3c(c(O)c1C2=O)C[C@@](O)(C(=O)CO)C[C@@H]3O[C@H]1C[C@H](N)[C@H](O)[C@H](C)O1 [doxorubicin],0.458 ± 0.28
8,C[C@]12CC[C@@H]3c4ccc(O)cc4C[C@@H](CCCCCCCCC[S+]([O-])CCCC(F)(F)C(F)(F)F)[C@H]3[C@@H]1CC[C@@H]2O (some centres not stated) [fulvestrant],4.81 ± 1.4
9,Nc1ccn([C@@H]2O[C@H](CO)[C@@H](O)C2(F)F)c(=O)n1 [gemcitabine],1.11 ± 0.44

# Same assay, conditions: 100 µM
row,SMILES,CTG-3D luminescence at 96 h
1,O=C(O)C1(C(=O)O)CCC1.[NH2-].[NH2-].[Pt+2] [carboplatin],3.05 ± 0.73
2,COc1cc2c(Oc3ccc4[nH]c(C)cc4c3F)ncnc2cc1OCCCN1CCCC1 [cediranib],0.0107 ± 0.0057
3,C[C@@H]1COCCN1c1cc(C2([S@](C)(=N)=O)CC2)nc(-c2cc[nH]c3nccc2-3)n1 [ceralasertib],1.86 ± 0.51
4,Cc1cc(Nc2ncc(Cl)c(Nc3ccccc3S(=O)(=O)C(C)C)n2)c(OC(C)C)cc1C1CCNCC1 [ceritinib],-0.011 ± 0.0032
5,O=C(c1ccc(F)c(F)c1Nc1ccc(I)cc1F)N1CC(O)([C@@H]2CCCCN2)C1 [cobimetinib],-0.00771 ± 0.0062
6,C[C@H](NC(=O)CCC(F)(F)F)C(=O)N[C@@H]1C(=O)N(CCO)c2ncccc2-c2ccccc21 [crenigacestat],4.69 ± 1.3
7,COc1cccc2c1C(=O)c1c(O)c3c(c(O)c1C2=O)C[C@@](O)(C(=O)CO)C[C@@H]3O[C@H]1C[C@H](N)[C@H](O)[C@H](C)O1 [doxorubicin],0.288 ± 0.25
8,C[C@]12CC[C@@H]3c4ccc(O)cc4C[C@@H](CCCCCCCCC[S+]([O-])CCCC(F)(F)C(F)(F)F)[C@H]3[C@@H]1CC[C@@H]2O (some centres not stated) [fulvestrant],5.18 ± 1.5
9,Nc1ccn([C@@H]2O[C@H](CO)[C@@H](O)C2(F)F)c(=O)n1 [gemcitabine],0.848 ± 0.44

# Same assay, conditions: 625 fM
row,SMILES,CTG-3D luminescence at 96 h
1,O=C(O)C1(C(=O)O)CCC1.[NH2-].[NH2-].[Pt+2] [carboplatin],4.47 ± 1.4
2,COc1cc2c(Oc3ccc4[nH]c(C)cc4c3F)ncnc2cc1OCCCN1CCCC1 [cediranib],4.45 ± 1.4
3,C[C@@H]1COCCN1c1cc(C2([S@](C)(=N)=O)CC2)nc(-c2cc[nH]c3nccc2-3)n1 [ceralasertib],4.53 ± 1.4
4,Cc1cc(Nc2ncc(Cl)c(Nc3ccccc3S(=O)(=O)C(C)C)n2)c(OC(C)C)cc1C1CCNCC1 [ceritinib],4.51 ± 1.3
5,O=C(c1ccc(F)c(F)c1Nc1ccc(I)cc1F)N1CC(O)([C@@H]2CCCCN2)C1 [cobimetinib],4.43 ± 1.4
6,C[C@H](NC(=O)CCC(F)(F)F)C(=O)N[C@@H]1C(=O)N(CCO)c2ncccc2-c2ccccc21 [crenigacestat],4.5 ± 1.4
7,COc1cccc2c1C(=O)c1c(O)c3c(c(O)c1C2=O)C[C@@](O)(C(=O)CO)C[C@@H]3O[C@H]1C[C@H](N)[C@H](O)[C@H](C)O1 [doxorubicin],4.4 ± 1.3
8,C[C@]12CC[C@@H]3c4ccc(O)cc4C[C@@H](CCCCCCCCC[S+]([O-])CCCC(F)(F)C(F)(F)F)[C@H]3[C@@H]1CC[C@@H]2O (some centres not stated) [fulvestrant],4.69 ± 1.4
9,Nc1ccn([C@@H]2O[C@H](CO)[C@@H](O)C2(F)F)c(=O)n1 [gemcitabine],4.44 ± 1.3
